Data from patent US20240252454A1, “COMPOSITION COMPRISING AN INHIBITOR OF MITOCHONDRIAL TRANSCRIPTION” (LEAD DISCOVERY CENTER GMBH, priority 2021, published 2024).

Key:
Assay type in all cases: cell-based
KASUMI-1 = test: SRB assay, IMT combined with inhibitor; conditions: KASUMI-1 (hematological); concentration series of the labelled inhibitor + fixed concentration of IMT (3S)-1-[(2R)-2-[4-(2-chloro-4-fluoro-phenyl)-2-oxo-chromen-7-yl]oxypropanoyl]piperidine-3-carboxylic acid (Table 3: 40 nM, 120 h); negative=synergistic, positive=antagonistic
Procedure, shortened: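 SRB biomass readout; 120 h exposure; 5 mM glucose medium; ≥2 independent replicates. MAPK SOC dilution series + fixed 40 nM (3S)-1-[(2R)-2-[4-(2-chloro-4-fluoro-phenyl)-2-oxo-chromen-7-yl]oxypropanoyl]piperidine-3-carboxylic acid; untreated cells as negative control.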

ASPC1 = test: SRB assay, IMT combined with inhibitor; conditions: ASPC1 (pancreas); concentration series of the labelled inhibitor + fixed concentration of IMT (3S)-1-[(2R)-2-[4-(2-chloro-4-fluoro-phenyl)-2-oxo-chromen-7-yl]oxypropanoyl]piperidine-3-carboxylic acid; negative=synergistic, positive=antagonistic
Method: (§1) Solforhodamine B assay is carried out as described in Voigt W. (2005) Sulforhodamine B Assay and Chemosensitivity. (Methods in Molecular Medicine™, vol 110. Humana Press. https://doi.org/10.1385/1-59259-869-2:039).
(§2) The determination of changes in cellular biomass was based on the Solforhodamine B assay format, carried out as described in Voigt W. (2005) Sulforhodamine B Assay and Chemosensitivity. (Methods in Molecular Medicine™, vol 110. Humana Press. https://doi.org/10.1385/1-59259-869-2:039).
(§3) All in vitro cell culture experiments were carried out under near physiological glucose concentrations (5 mM) in at least two independent replicates.
(§4) To establish the method described, combinations of (3S)-1-[(2R)-2-[4-(2-chloro-4-fluoro-phenyl)-2-oxo-chromen-7-yl]oxypropanoyl]piperidine-3-carboxylic acid and various PARPi were tested with regard to their effect on the cell growth of 33 tumour cell lines from different tissues, in the SRB and CTG assay format. The assay methods and protocols in cell culture and measurement followed the procedure as described in Example 1). […] This initial study was followed by validation experiments in a matrix format and in the CTG assay, as described for Example 1) (Table 6.)

A204 = test: SRB assay, IMT combined with inhibitor; conditions: A204 (muscle); concentration series of the labelled inhibitor + fixed concentration of IMT (3S)-1-[(2R)-2-[4-(2-chloro-4-fluoro-phenyl)-2-oxo-chromen-7-yl]oxypropanoyl]piperidine-3-carboxylic acid; negative=synergistic, positive=antagonistic
Method: as §1, §2, §3, §4

MDAMB468 = test: SRB assay, IMT combined with inhibitor; conditions: MDAMB468 (breast); concentration series of the labelled inhibitor + fixed concentration of IMT (3S)-1-[(2R)-2-[4-(2-chloro-4-fluoro-phenyl)-2-oxo-chromen-7-yl]oxypropanoyl]piperidine-3-carboxylic acid; negative=synergistic, positive=antagonistic
Method: as §1, §2, §3, §4

MCF7 = test: SRB assay, IMT combined with inhibitor; conditions: MCF7 (breast); concentration series of the labelled inhibitor + fixed concentration of IMT (3S)-1-[(2R)-2-[4-(2-chloro-4-fluoro-phenyl)-2-oxo-chromen-7-yl]oxypropanoyl]piperidine-3-carboxylic acid; negative=synergistic, positive=antagonistic
Method: as §1, §2, §3, §4

[1] = system: 33 tumour cell lines from different tissues; test: SRB assay, panel of tumour cell lines; conditions: fixed concentration of IMT (3S)-1-[(2R)-2-[4-(2-chloro-4-fluoro-phenyl)-2-oxo-chromen-7-yl]oxypropanoyl]piperidine-3-carboxylic acid against concentration series of the labelled inhibitor
Method: as §1, §2, §3
To establish the method described, combinations of (3S)-1-[(2R)-2-[4-(2-chloro-4-fluoro-phenyl)-2-oxo-chromen-7-yl]oxypropanoyl]piperidine-3-carboxylic acid and various PARPi were tested with regard to their effect on the cell growth of 33 tumour cell lines from different tissues, in the SRB and CTG assay format. The assay methods and protocols in cell culture and measurement followed the procedure as described in Example 1). […] This initial study was followed by validation experiments in a matrix format and in the CTG assay, as described for Example 1) (Table 6.) […]

MDAMB231 = test: SRB assay, IMT combined with inhibitor; conditions: MDAMB231 (breast); concentration series of the labelled inhibitor + fixed concentration of IMT (3S)-1-[(2R)-2-[4-(2-chloro-4-fluoro-phenyl)-2-oxo-chromen-7-yl]oxypropanoyl]piperidine-3-carboxylic acid; negative=synergistic, positive=antagonistic
Method: as §1, §2, §3, §4

A2780 = test: CellTiter-GLO (CTG) assay, combinatorial matrix

## Cc1cc(C(=O)NOCCO)c(Nc2ccc(I)cc2F)n(C)c1=O [AZD8330, 2-((2-Fluoro-4-iodophenyl)amino)-N-(2-hydroxyethoxy)-1,5-dimethyl-6-oxo-1,6-dihydropyridine-3-carboxamide]
KASUMI-1
  difference between the calculated combinatorial index (BLISS) and the observed combinatorial effect: −0.0326

## CC(C)(C)c1nc(-c2cccc(NS(=O)(=O)c3c(F)cccc3F)c2F)c(-c2ccnc(N)n2)s1 [Dabrafenib]
KASUMI-1
  difference between the calculated combinatorial index (BLISS) and the observed combinatorial effect: −0.0274

## COc1c(OCCCN2CCOCC2)ccc2c1N=C(NC(=O)c1cnc(N)nc1)N1CCN=C21 [BAY 80-6946, 2-Amino-N-{7-methoxy-8-[3-(4-morpholinyl)propoxy]-2,3-dihydroimidazo[1,2-c]quinazolin-5-yl}-5-pyrimidinecarboxamide]
ASPC1
  difference between the calculated combinatorial index (BLISS) and the observed combinatorial effect: 0.0488
A204
  difference between the calculated combinatorial index (BLISS) and the observed combinatorial effect: −0.0098
MDAMB468
  difference between the calculated combinatorial index (BLISS) and the observed combinatorial effect: 0.0183
MCF7
  difference between the calculated combinatorial index (BLISS) and the observed combinatorial effect: 0.0155
KASUMI-1
  difference between the calculated combinatorial index (BLISS) and the observed combinatorial effect: 0.0015
[1]
  combinatorial effect in the majority of the cell lines and tissue types examined: clear synergistic effect

## CS(=O)(=O)N1CCN(Cc2cc3nc(-c4cccc5[nH]ncc45)nc(N4CCOCC4)c3s2)CC1 [GDC-0941, 2-(1H-Indazol-4-yl)-6-[[4-(methylsulfonyl)-1-piperazinyl]methyl]-4-(4-morpholinyl)thieno[3,2-d]pyrimidine]
ASPC1
  difference between the calculated combinatorial index (BLISS) and the observed combinatorial effect: 0.1003
A204
  difference between the calculated combinatorial index (BLISS) and the observed combinatorial effect: 0.3066
MDAMB468
  difference between the calculated combinatorial index (BLISS) and the observed combinatorial effect: −0.0509
MCF7
  difference between the calculated combinatorial index (BLISS) and the observed combinatorial effect: 0.0454
KASUMI-1
  difference between the calculated combinatorial index (BLISS) and the observed combinatorial effect: 0.0051

## CC(C)Nc1cc(-c2c[nH]c(C(=O)N[C@H](CO)c3cccc(Cl)c3)c2)c(Cl)cn1 [Ulixertinib]
KASUMI-1
  difference between the calculated combinatorial index (BLISS) and the observed combinatorial effect: 0.0068

## CC(=O)Nc1cccc(-n2c(=O)n(C3CC3)c(=O)c3c(Nc4ccc(I)cc4F)n(C)c(=O)c(C)c32)c1 [Trametinib]
KASUMI-1
  difference between the calculated combinatorial index (BLISS) and the observed combinatorial effect: −0.0377

## O=C(NOC[C@H](O)CO)c1ccc(F)c(F)c1Nc1ccc(I)cc1F [PD 0325901, (R)—N-(2,3-dihydroxypropoxy)-3,4-difluoro-2-((2-fluoro-4-iodophenyl)amino)benzamide]
KASUMI-1
  difference between the calculated combinatorial index (BLISS) and the observed combinatorial effect: −0.0286

## C[C@H](Nc1ncnc2nc[nH]c12)c1cc2cccc(Cl)c2c(=O)n1-c1ccccc1 [Duvelisib]
ASPC1
  difference between the calculated combinatorial index (BLISS) and the observed combinatorial effect: 0.0753
A204
  difference between the calculated combinatorial index (BLISS) and the observed combinatorial effect: −0.0217
MDAMB468
  difference between the calculated combinatorial index (BLISS) and the observed combinatorial effect: −0.0285
MCF7
  difference between the calculated combinatorial index (BLISS) and the observed combinatorial effect: 0.0256
KASUMI-1
  difference between the calculated combinatorial index (BLISS) and the observed combinatorial effect: −0.0237

## O=C(c1cc(Cc2n[nH]c(=O)c3ccccc23)ccc1F)N1CCN(C(=O)C2CC2)CC1 [Olaparib]
ASPC1
  difference between the calculated combinatorial index (BLISS) and the observed combinatorial effect: −0.0583
A204
  difference between the calculated combinatorial index (BLISS) and the observed combinatorial effect: −0.0329
MDAMB468
  difference between the calculated combinatorial index (BLISS) and the observed combinatorial effect: −0.0262
MDAMB231
  difference between the calculated combinatorial index (BLISS) and the observed combinatorial effect: −0.0488
MCF7
  difference between the calculated combinatorial index (BLISS) and the observed combinatorial effect: 0.0602
A2780; A2780, CTG matrix, 30 μM to 10 nM IMT (3S)-1-[(2R)-2-[4-(2-chloro-4-fluoro-phenyl)-2-oxo-chromen-7-yl]oxypropanoyl]piperidine-3-carboxylic acid + 30 μM to 40 nM of the labelled PARPi
  combination of IMT and PARPi compared to treatment with just the PARPi alone: advantage of the combination
A2780; Homo sapiens, A2780, 72 hours, Olaparib 0.04 μM, IMT (3S)-1-[(2R)-2-[4-(2-chloro-4-fluoro-phenyl)-2-oxo-chromen-7-yl]oxypropanoyl]piperidine-3-carboxylic acid at the μM of c0, untreated control =100%, read-out: Measured residual activity (cellular ATP content)
  activity at 0.04 µM: 99%
A2780; Homo sapiens, A2780, 72 hours, Olaparib 0.1 μM, IMT (3S)-1-[(2R)-2-[4-(2-chloro-4-fluoro-phenyl)-2-oxo-chromen-7-yl]oxypropanoyl]piperidine-3-carboxylic acid at the μM of c0, untreated control =100%, read-out: Measured residual activity (cellular ATP content)
  activity at 0.1 µM: 85%
A2780; Homo sapiens, A2780, 72 hours, Olaparib 0.4 μM, IMT (3S)-1-[(2R)-2-[4-(2-chloro-4-fluoro-phenyl)-2-oxo-chromen-7-yl]oxypropanoyl]piperidine-3-carboxylic acid at the μM of c0, untreated control =100%, read-out: Measured residual activity (cellular ATP content)
  activity at 0.4 µM: 46%
A2780; Homo sapiens, A2780, 72 hours, Olaparib 1.1 μM, IMT (3S)-1-[(2R)-2-[4-(2-chloro-4-fluoro-phenyl)-2-oxo-chromen-7-yl]oxypropanoyl]piperidine-3-carboxylic acid at the μM of c0, untreated control =100%, read-out: Measured residual activity (cellular ATP content)
  activity at 1.1 µM: 27%
A2780; Homo sapiens, A2780, 72 hours, Olaparib 3.3 μM, IMT (3S)-1-[(2R)-2-[4-(2-chloro-4-fluoro-phenyl)-2-oxo-chromen-7-yl]oxypropanoyl]piperidine-3-carboxylic acid at the μM of c0, untreated control =100%, read-out: Measured residual activity (cellular ATP content)
  activity at […]: 14%
A2780; Homo sapiens, A2780, 72 hours, Olaparib 10 μM, IMT (3S)-1-[(2R)-2-[4-(2-chloro-4-fluoro-phenyl)-2-oxo-chromen-7-yl]oxypropanoyl]piperidine-3-carboxylic acid at the μM of c0, untreated control =100%, read-out: Measured residual activity (cellular ATP content)
  activity at 10 µM: 1%
A2780; Homo sapiens, A2780, 72 hours, Olaparib 30 μM, IMT (3S)-1-[(2R)-2-[4-(2-chloro-4-fluoro-phenyl)-2-oxo-chromen-7-yl]oxypropanoyl]piperidine-3-carboxylic acid at the μM of c0, untreated control =100%, read-out: Measured residual activity (cellular ATP content)
  activity at 30 µM: 0%
KASUMI-1
  difference between the calculated combinatorial index (BLISS) and the observed combinatorial effect: −0.0415
[1]
  combinatorial effect in the majority of the cell lines and tissue types examined: clear synergistic effect

## O=C(c1ccc(F)c(F)c1Nc1ccc(I)cc1F)N1CC(O)([C@@H]2CCCCN2)C1 [Cobimetinib]
KASUMI-1
  difference between the calculated combinatorial index (BLISS) and the observed combinatorial effect: −0.0232

## Cn1cnc2c(F)c(Nc3ccc(Br)cc3Cl)c(C(=O)NOCCO)cc21 [Selumetinib]
KASUMI-1
  difference between the calculated combinatorial index (BLISS) and the observed combinatorial effect: −0.0114
